From patent US12280029B2, “Methods of treatment of inflammation related conditions using pluripotent anti-inflammatory and metabolic modulators” (INSTITUT PASTEUR DE MONTEVIDEO, priority 2016, dated 2025) come the findings set out here.

The test system of series [1] is skin allograft, C57BL/6 female mice grafted with skin of C57BL/6 male mice. The experiment in a line: Skin allograft rejection in mice. The format is in vivo. Particulars: from one day before until 15 days after transplantation. The procedure:
C57BL/6 female mice were grafted with skin from the tails of C57BL/6 male mice. The skin graft is a small square (1 cm^2) and it was implanted onto the left subscapular region of the female mice. From one day before the transplantation until 15 days after it, the mice were treated daily with SANA. (1.00 mg/kg, by oral gavage; SANA group) or vehicle (Control group). The vehicle used was a solution of Carboxy-Methyl-cellulose 0.5% m/v and Tween 80 0.5% v/v. At the end of the 15th day of administration, allografts were checked every 48/72 hours to assess the condition of the grafted skin. Rejection was diagnosed clinically when the allograft lost more than 50% of its size and/or more than 10% of allograft was necrotic. […] The study followed the protocol described above for FIG. 1, but further included a Salicylate group. C57BL/6 female mice were grafted with skin from the tails of C57BL/6 male mice. The skin graft is a small square (1 cm^2) and it was implanted onto the left subscapular region of the female mice. From one day before the transplantation until 15 days after it, the mice were treated daily with Salicylate (100 mg/kg, by oral gavage; Salicylate group), SANA (100 mg/kg, by oral gavage; SANA group) or vehicle (Control group). The vehicle used was a solution of Carboxy-Methyl-cellulose 0.5% m/v and Tween 80 0.5% v/v. […]

Series [2] is described as follows: Adduct formation of SANA with β-mercaptoethanol, followed spectrophotometrically (UV-visible). The series is classed as physicochemical. The conditions noted are these: pH 7.4, BME 1 mM, scans every min up to 15 min. The procedure: (§1) UV-visible spectra was acquired by a Varian Cary 50 Bio. Scans were taken every min up to 15 min.
Series [3] can be described thus: Adduct formation of SANA with glutathione, followed spectrophotometrically (UV-visible). The series is classed as physicochemical. Particulars: pH 7.4, GSH 1 mM, scans every min up to 15 min. The procedure:
as §1

Series [4] deals with Il-1b secretion into the peritoneum. The series can be described thus: LPS-induced Il-1b secretion into the peritoneum in vivo.
Another series concerns HFD-induced obese mice. The experiment in a line: Insulin resistance in HFD-induced obese mice (glucose tolerance test). Particulars: 100 mg/kg gavage every day during four weeks. The series is classed as in vivo. The procedure: Mice under RFD for up to 7 months (mean weight around 40 gr.) were treated with SANA (100 mg/kg; gavage) or phosphate buffer (control) every day during four weeks. The glucose tolerance test were run as per well-known standard procedures.

Series [5] deals with Nrf2/Keap1-dependent gene expression in Hep G2 cells. The series can be described thus: Phase two enzymes Nrf2/Keap1-dependent gene expression (qPCR). The series is classed as cell-based. Particulars: Hep G2, five hours, SANA 0.1 mM, Salicylic Acid 0.2. and 5 mM. The procedure: FIGS. 6 and 7 show induction of phase two enzymes Nrf2/Keap1-dependent gene expression by SANA but not by SA. Hep G2 cells were treated with SANA (0.1 mM) or Salicylic Acid (0.2. and 5 mM) for five hours. mRNA was extracted from the cells and was measured HO-1, GCLM and NQO1 gene expression by qPCR.
In general terms: Quantitative PCR measures a nucleic acid by following its amplification.

Series [6] can be described thus: Stopped-flow kinetic measurement of the reaction with BME. The format is physicochemical. Particulars: 25 μM, BME 0.54-2.73 mM, absorbance at 260 nm, 25° C., triplicate, slope of pseudo first order constants vs BME. The procedure:
In FIG. 2, it is shown that the reaction between SANA and BME was determined to be a second order rate constant. Stopped-flow kinetic measurements were performed using an Rx 2000 stopped flow analyzer (Applied Photophysics). Mixtures of 1.50 μL […] (25 μM) and solutions of BME at 0.54 mM, 1.09 mM, 1.64 mM, 2.18 mM, and 2.73 mM concentrations.
The reaction was monitored by following the absorbance at 260 nm and plots were fitted to a simple exponential decay function using Originlab software (version 8.0.). The observed pseudo first order constant at each concentration of BME was extracted from the equation and plotted against the concentration of BME. The second rate constant of the reaction is derived from the slope of the curve and was 182±6 M^−1s^−1. All experiments were carried out at 25° C. by triplicate.

Series [7] concerns NF-kB-dependent gene expression in THP-1 cells differentiated into macrophages. The series can be described thus: NF-kB-dependent gene expression in human macrophages (qPCR). The series is classed as cell-based. Particulars: 100 and 200 uM for 2 hours, then LPS (3 hours). The procedure:
THP-1 cells were differentiated into macrophages. Cells were then treated with SANA (100 and 200 uM) or Salicylic acid (SA: 100 and 200 uM) for 2 hours. Cells were then stimulated with LPS (1 mg/mL, 3 hours) mRNA was extracted and IL-6, TNF-a and MCP-1 fold change gene expression over control were quantified by qPCR.

Series [8] concerns NF-κB/p65 in THP-1 macrophages. The series can be described thus: LPS-induced NF-κB/p65 subcellular localization, immunofluorescence and epifluorescence microscopy. The series is classed as cell-based, human. The source says: Nuclear factor kappa B (NF-κB) represents a family of pro-inflammatory transcription factors, present in all eukaryotic cells, which regulate inducible expression of wide ranging genes involved in immune responses and cell-cycle regulation. Activation of NF-κB is accompanied by nuclear translocation of NF-κB. […] Specifically, FIG. 3 illustrates immunofluorescence and epifluorescence microscopy analysis showing the effect of SANA on LPS-induced NF-κB/p65 subcellular localization in THP-1 macrophages.

Another series addresses GAPDH (Homo sapiens, UniProt P04406). The series can be described thus: GAPDH activity. The series is classed as biochemical.
Series [9] deals with inflammasome in THP-1 cells differentiated into macrophages. The experiment in a line: Inflammasome inhibition in THP-1 macrophages (LPS + ATP, IL-1b ELISA). The format is cell-based, human. The conditions noted are these: for inhibition of the inflammasome (IL-1b secretion), applied with the second signal: LPS (250 ng/mL, 3 hs.), then together with ATP (5 mM, 45 minutes), SANA 0.05, 0.125 and 0.25 mM, Salicylic acid 0.25 mM; for inhibition of the inflammasome (IL-1b secretion), applied with the first signal: together with LPS (250 ng/mL, 3 hs.), then ATP (5 mM, 45 minutes), SANA 0.05, 0.125 and 0.25, Salicylic acid 0.2.5 mM. The procedure: In FIGS. 8 and 9 show the inhibition of inflammasome in THP-1 cells differentiated into macrophages (PMA 200 nM, 48 hs.) by SAMA but not by SA when applied together with the first (FIG. 8) or the second (FIG. 9) signal. In FIG. 8 cells were treated with Salicylic acid (0.2.5 mM) or SANA (0.05; 0.125 and 0.25) together with LPS stimulation. The cells were stimulated with LPS (250 ng/mL, 3 hs.) and then with ATP (5 mM, 45 minutes). Supernatant was collected and IL-1b measured by ELISA. Cell viability was assessed by MTT assay. […] In FIG. 9 THP-1 cells were differentiated into macrophages with PMA (200 nM, 48 hs.). Cells were stimulated with LPS (250 ng/mL, 3 hs.) and then with ATP (5 mM, 45 minutes), Together with ATP treatment, cells were then treated with […] (10 uM), Salicylic acid (0.25 mM) or SANA (0.05; 0.125 and 0.25 mM). Supernatant was collected and IL-1b secretion was measured by ELISA. Cell viability was assessed by the MTT assay.

Chain of GAPDH (P04406 whole entry, species assumed): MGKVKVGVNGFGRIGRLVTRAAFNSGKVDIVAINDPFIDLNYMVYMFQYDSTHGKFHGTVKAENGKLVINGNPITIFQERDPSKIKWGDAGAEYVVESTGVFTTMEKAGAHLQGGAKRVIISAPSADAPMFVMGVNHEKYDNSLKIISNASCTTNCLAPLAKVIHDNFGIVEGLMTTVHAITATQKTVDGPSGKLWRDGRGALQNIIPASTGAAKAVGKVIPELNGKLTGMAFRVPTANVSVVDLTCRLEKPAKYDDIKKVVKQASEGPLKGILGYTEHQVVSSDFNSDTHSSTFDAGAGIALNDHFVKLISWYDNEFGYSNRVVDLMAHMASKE

Consider `O=C(O)c1cc(/C=C/[N+](=O)[O-])ccc1O` [SANA, 2-hydroxy-5-(2-nitroethenyl)benzoic acid], for which the “survival of grafted skin vs control group” value in series [1] (1.00 mg/kg by oral gavage daily) is “prolonged survival of grafted skin as compared to a control group”. The “skin allograft rejection vs salicylic acid” value in series [1] (100 mg/kg by oral gavage daily, Salicylate 100 mg/kg) is recorded as “significant reduction in skin allograft rejection compared to salicylic acid”. Besides, in series [2], the “adduct formation with BME (increase of absorption at 360 nm)” value is “adduct formation”. Also, in [3], the “adduct formation with GSH (increase of absorption at 360 nm)” value is listed as “adduct formation”. In addition, the “LPS-induced Il-1b secretion into the peritoneum” value in series [4] is listed as “decreases”. Further, in the series on HFD-induced obese mice, the “insulin resistance (glucose tolerance test)” value is given as “reverses insulin resistance”. Besides, the “induction of Nrf2/Keap1-dependent gene expression (HO-1, GCLM and NQO1)” value in series [5] is reported as “induction”. Moreover, in series [6], the “second rate constant of the reaction with BME” value came out at 182 ± 6 M⁻¹ s⁻¹. The “inhibition of NF-kB-dependent gene expression (IL-6, TNF-a and MCP-1 mRNA fold change over control)” value in series [7] was “inhibition of NF-kB-dependent gene expression”. Further, the “LPS-induced NF-κB/p65 nuclear translocation” value in series [8] (0.1 mM, 2 hs before activation with LPS (1 ug/mL)) is listed as “lack of nuclear translocation of NF-κB”. Also, the “potency relative to salicylic acid on NF-κB/p65 localization” value in [8] (SANA 0.1 mM vs salicylic acid 1 mM) is “significantly more potent than salicylic acid”. Also, on GAPDH, the “inhibition of GAPDH activity” value is reported as “does not inhibit GAPDH activity”. In addition, in series [9], the “inhibition of the inflammasome (IL-1b secretion), applied with the second signal” value is on record as “potent inhibitor of the inflammasome” and the “inhibition of the inflammasome (IL-1b secretion), applied with the first signal” value is recorded as “potent inhibitor of the inflammasome”.
With `O=C(O)c1ccccc1O` [salicylic acid, reference compound], the “induction of Nrf2/Keap1-dependent gene expression (HO-1, GCLM and NQO1)” value in series [5] is given as “not by SA”. Also, the “inhibition of NF-kB-dependent gene expression (IL-6, TNF-a and MCP-1 mRNA fold change over control)” value in [7] is “not able to inhibit NF-kB dependent gene expression”. For the same compound, in series [8] (1 mM, LPS (1 ug/mL)), the “LPS-induced NF-κB/p65 subcellular localization, effect compared with SANA 0.1 mM” value is “the same effect”. Moreover, in series [9], the “inhibition of the inflammasome (IL-1b secretion), applied with the second signal” value was “cannot inhibit” and the “inhibition of the inflammasome (IL-1b secretion), applied with the first signal” value is reported as “cannot inhibit”.
